Laboratory results published in patent publication US5808065A, “Pyridazinone derivatives and processes for preparing the same” (Tanabe Seiyaku Co., Ltd., priority 1995, dated 1998).

How the values were obtained:
[1] = Antinephritic Action (protein excretion inhibition in nephritis induced with nephrotoxic serum (NTS)); format: in vivo, male WKY rats; conditions: 30 mg/kg/10 ml orally twice a day for 8 days; urine collected for 24 hours on the seventh day; 6 rats per group
Experimental: Rabbits were immunized several times with an adjuvant and a renal glomerular basement membrane fraction obtained from WKY rats, and then whole blood was collected from the rabbits to obtain a nephrotoxic serum (NTS). This NTS was diluted by 50 times with physiological saline, and to male WKY rats of 8 weeks old, 2.5 ml of the diluted NTS per 1 kg of body weight was injected intravenously to induce nephritis. To a normal group, the same amount of physiological saline was administered intravenously. One experimental group consisted of 6 rats. Each compound to be tested was suspended in purified water by using a small amount of Tween 80 (trade name, produced by Nacalai Tesque Co.), and a dose of 30 mg/kg/10 ml was orally administered twice a day for continuous 8 days. To a normal group and a control group, the same amount of purified water was administered orally. On the seventh day, the rats were placed in a metabolic cage, and urine was collected for 24 hours. By measuring the concentrations of protein in urine by the sulfosalicylic acid method, the amounts of excreted protein (mg/day) were determined, and protein excretion-inhibiting rates were calculated by the following equation. [formula]

[2] = Side Effect to Circulatory System (normal awakened rats, tail-cuff method); format: in vivo; conditions: 30 mg/kg/10 ml orally, before and 2 hours after administration
Experimental: One experimental group consisted of 4 rats. Each compound to be tested was suspended in purified water by using a small amount of Tween 80 (trade name, produced by Nacalai Tesque Co.), and a dose of 30 mg/kg/10 ml was administered orally to normal awakened rats. Systolic blood pressures and heart rates before administration and 2 hours after administration were examined. The systolic blood pressures and the heart rates were measured by the tail-cuff method (KN-210, trade name, produced by Natsume Seisakusho) under conditions of pretreatment at 40° C. for 15 minutes.
According to the following equations, the respective changing rates were calculated. [formula]

mice = assay: Toxicity (death of mice observed for 3 days); format: in vivo
Excerpt: The desired compound (I) of the present invention has low toxicity.

| Structure (SMILES) | Inhibition rate (protein excretion-inhibiting rate) [1] [%] | Heart rate-changing rate [2] | Systolic blood pressure-changing rate [2] | death (mice; mouse, in vivo, ip, 300 mg/kg) | death (mice; orally, 1,000 mg/kg, observed for 3 days) |
| --- | --- | --- | --- | --- | --- |
| O=C(NCCCCc1ccc(-c2ccc(=O)[nH]n2)cc1)c1cccnc1 [Example 30, 6-[4-(4-(pyridin-3-ylcarbonylamino)butyl)phenyl]pyridazin-3(2H)-one] | 82.5 | 3 Δ% | -2 Δ% | – | – |
| Nc1ncccc1C(=O)NCCCCc1ccc(-c2ccc(=O)[nH]n2)cc1 [Example 70] | 74.1 | – | – | – | – |
| O=C(NCCCOc1ccc(-c2ccc(=O)[nH]n2)cc1)c1cccnc1 [Example 36, 6-[4-(3-(pyridin-3-ylcarbonylamino)propoxy)phenyl]pyridazin-3(2H)-one] | 89.0 | 1 Δ% | 0 Δ% | – | – |
| CC1CC(=O)NN=C1c1ccc(CCNC(=O)c2cccnc2)cc1 (stereo not drawn) [Known compound, 5-methyl-6-(4-[2-(pyridin-3-ylcarbonylamino)ethyl]phenyl)-4,5-dihydropyridazin-3 (2H)-one, reference compound] | – | 18 Δ% | -7 Δ% | – | – |
| C=CS(=O)(=O)NCCCc1ccc(-c2ccc(=O)[nH]n2)cc1 [Example 52-(4), 6-[4-(3-vinylsulfonylaminopropyl)phenyl]-pyridazin-3(2H)-one] | 74.6 | – | – | – | – |
| Nc1ncccc1C(=O)NCCCCc1ccc(-c2ccc(=O)[nH]n2)cc1 [Example 33] | 85.7 | 2 Δ% | 1 Δ% | – | – |
| O=C(NCCCc1ccc(-c2ccc(=O)[nH]n2)cc1)c1cccnc1 [Example 31] | – | 7 Δ% | 0 Δ% | – | – |
| Cl.O=C(NCCCCc1ccc(-c2ccc(=O)[nH]n2)cc1)c1cccnc1 [Example 69, 6-[4-(4-(pyridin-3-ylcarbonylamino)butyl)phenyl]pyridazin-3(2H)-one hydrochloride] | 82.2 | – | – | no case of death was observed | no case of death was observed |
| Cc1ncccc1C(=O)NCCCCc1ccc(-c2ccc(=O)[nH]n2)cc1 [Example 32] | 64.3 | 5 Δ% | -2 Δ% | – | – |
